Structures can show the parent of a compound that is named as a salt.
What was measured:
Format in all cases: physicochemical
[1] = Solubility in phosphate buffered saline by visual observation; details: aqueous buffer, thermodynamic from solid, phosphate buffered saline (PBS pH 7.2-7.4), room temperature
Method: When 2-MT-NDSA salt (20 mg) was added to phosphate buffered saline (PBS pH 7.2-7.4, FUJIFILM Wako Pure Chemical Corporation 164-18541, 1 mL) at room temperature, the salt was dissolved easily. The 2-MT-NDSA salt was further added by […] to the solution. By visual observation to confirm dissolution, undissolved remainder was confirmed when the total amount reached 200 mg. Thus, the solubility under the present conditions was 100 mg/mL to 200 mg/mL.

[2] = Deliquescence by visual observation; details: relative humidity of about 75%, 25° C., 23 hr
Method: A petri dish containing 2-MT-NDSA salt was placed in a relative humidity of about 75%, and left standing in a thermostatic tank at 25° C. for 23 hr.

[3] = Stability in the solid state at 40° C., checked by 1H NMR; details: vial, heated to 40° C., left standing for three days
Method: 2-MT-NDSA salt was placed in a vial, heated to 40° C., and left standing for three days. […] Thus, it can be said that 2-MT·NDSA salt is stable in the solid state at 40° C. for 3 days (corresponding to 2 weeks at 25° C.).

[4] = Humidity stress test with XRPD analysis; details: unsealed vial, 7 days
Method: XRPD analyses were performed using a Panalytical Empyrean diffractometer equipped with a Cu X-ray tube and a PIXcel 1D-Medipix3 detector system. The samples were analyzed at ambient temperature in transmission mode and held between low density PVC films. The XRPD program was used (range 3-40° […], step size 0.013°, counting time 99 sec, about 22 min run time/counting time 49 sec, about 11 min run time/counting time 22 sec, about 5 min run time). Samples were spun at 60 rpm during data collection. XRPD patterns were sorted and manipulated using HighScore Plus 2.2c/v4.9 software.
A given amount of salt was charged into a vial and placed unsealed in a thermostatic tank at 40° C./75% relative humidity or ambient temperature for 7 days and XRPD analysis was performed.

CC1=NCCS1 [2-MT-NDSA salt, monohydrate of a hemi-1,5-naphthalenedisulfonic acid salt of 2-methyl-2-thiazoline]
solubility [1]: 100 to 200 mg/mL | deliquescence [2]: No deliquescence | stability in the solid state (1H NMR before and after) [3]: no change in the peaks was observed | physical stability post storage (XRPD) ([4]; 40° C./75% relative humidity): physically stable | physical stability post storage (XRPD) ([4]; ambient temperature): physically stable

Reference: US20250304540A1, “2-METHYL-2-THIAZOLINE SALT” (Myrodia Therapeutics Co., Ltd., priority 2022, published 2025)
